In publication doi:10.1101/2024.04.15.589676 (bioRxiv, 2024) one finds EC50 and CC50 data, which are given here for two compounds.

The subject of series [1] is Vesicular stomatitis virus rVSV-SARS-CoV-2-S. Particulars: inhibitor; read-out: EC50 rVSV-SARS-CoV-2-S, Vero.
Series [2] relates to SARS-CoV-2. Set-up: species or system human adult lung organoid-derived monolayers; SARS-CoV-2 infectious titre in organoid supernatants, plaque assay. Particulars: inhibitor; read-out: EC50 SARS-CoV-2, ALO.
Series [3] in a line: in vitro. Particulars: human, adult lung organoid monolayer.
In series [4] the test system is SARS-CoV-2-nluc, WA1/2020. Particulars: inhibitor; read-out: EC50 SARS-CoV-2-nluc, Calu-3.
For series [5], the system named is Vesicular stomatitis virus rVSV-SARS-CoV-2-S. Particulars: inhibitor; read-out: EC50 rVSV-SARS-CoV-2-S, Vero. This is another data set of the same source.
Series [6] deals with Venezuelan equine encephalitis virus VEEV (TC-83). Particulars: inhibitor; read-out: EC50 VEEV (TC-83), U-87 MG.
The subject of series [7] is DENV2. Further details: DENV2 replication, plaque assay. Particulars: inhibitor; read-out: EC50 DENV2, Huh7.
Series [8] concerns Ebola virus EBOV. Particulars: 48 h; inhibitor; read-out: EC50 EBOV, Huh7.
Series [9] has as its system Marburg virus MARV. Particulars: 48 h; inhibitor; read-out: EC50 MARV, Huh7.
The subject of series [10] is Huh7. Particulars: human, huh7 cells.

Read-outs that look alike come from different tables or passages of the source. Some results are limits rather than exact numbers.

One may read the EC50 as the concentration giving half of the maximal effect. On to `Cc1cccc(/C=N/Nc2cc(N3CCOCC3)nc(OCCc3ccccn3)n2)c1` [Apilimod], for which the figures for the EC50 in series [1] and in series [2] were 12 nM and 420 nM, respectively. The compound further had a CC50 in [3] of 9900 nM.

As to `COc1ccc(-c2cnc3c(C#Cc4cccnc4)snc3c2)cc1OC` [RMC-113], the EC50 in series [4] was 1450 nM; in series [5], 1800 nM; in [6], 1400 nM; in series [7], 1400 nM; in series [8], 5000 nM; in series [9] it was 7800 nM. The same compound had a CC50 in series [10] above 10000 nM.
